Data on 7 compounds can be found in patent US9657024B2, “Substituted triazolo-pyrimidine compounds for modulating cell proliferation, differentiation and survival” (STATegics, Inc., priority 2012, dated 2017).

For data set [1], the system named is primary dopaminergic neurons. The data set can be described thus: Protection of primary dopaminergic neurons from 6-OHDA (THir neurons). It counts as cell-based, rat. The settings on record: 6.25 uM 6-OHDA 40 minute. As for the experimental part: Dissociated embryonic D14 rat ventral mesencephalic cells were used.
Dopaminergic neurons play a key role in the pathogenesis of Parkinson's disease and compounds enhancing survival of these cells have significant therapeutic potential. Dissociated embryonic D14 rat ventral mesencephalic cells were used to test the potential of EPO mimetic compounds to protect primary dopaminergic neurons. […] The cells were plated in 48-well poly-D-lysine coated plates using a microisland technique. The microislands were seeded into dry plates in 10 uL aliquots of 3000 cells/uL and incubated at 37° C. for 1 h to allow for adhesion. […] On day 3, the medium was replaced with 6.25 uM 6-hydroxydopamine (6-OHDA, Sigma) for a 40 minute incubation. The toxin was then removed and the cells were cultured for an additional 2 days. On day 5, the cells were fixed, permeabilized and stained for tyrosine hydroxylase-immunoreactive (THir) neurons.

In data set [2] the test system is frataxin. To be noted: 8 FRDA patients, open label pilot trial; cited from earlier work.
For data set [3] the following is noted: following intravenous administration; cited from earlier work.
Data set [4] concerns frataxin. To be noted: patients with chronic kidney disease, rhEPO infusion for anemia; cited from earlier work.
Data set [5] deals with T1, EPO receptor (Homo sapiens, UniProt P19235).
T1 sequence (P19235 25-508): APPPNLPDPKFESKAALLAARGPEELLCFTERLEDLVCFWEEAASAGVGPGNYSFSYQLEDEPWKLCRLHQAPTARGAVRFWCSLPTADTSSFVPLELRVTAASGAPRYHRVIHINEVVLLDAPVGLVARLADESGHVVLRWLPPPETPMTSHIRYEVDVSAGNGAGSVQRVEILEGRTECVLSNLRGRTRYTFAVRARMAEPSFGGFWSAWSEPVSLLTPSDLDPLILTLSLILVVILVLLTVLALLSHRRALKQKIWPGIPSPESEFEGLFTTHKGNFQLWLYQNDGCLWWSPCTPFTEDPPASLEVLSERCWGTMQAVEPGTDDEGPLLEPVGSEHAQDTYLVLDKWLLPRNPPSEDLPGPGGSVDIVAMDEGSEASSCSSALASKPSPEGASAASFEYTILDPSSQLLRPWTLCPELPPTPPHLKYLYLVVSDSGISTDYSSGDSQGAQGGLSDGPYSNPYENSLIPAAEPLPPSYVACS
The data set can be described thus: EPO receptor phosphorylation in TF-1 cells (phospho-EPOR ELISA). It counts as cell-based. The arrangement: endogenous in cells; host or cells: TF-1 human erythroleukemia cell line. The settings on record: TF-1, 10 min. How it is done:
(§1) Primary micro-dissected fetal brain tissue was obtained from a commercial source (Advanced Bioscience Resources, Inc., Alameda, Calif.). Cultured primary human fetal neural cells (3 h, 1 day, 17 days, or 26 days in culture) were incubated with Compound 5, Compound 6, or controls for 10 min (FIG. 5A). Phospho-EPOR was detected by ELISA (R&D Systems). […] Human erythropoietic cell line TF-1 was cultured for 10 min in the presence of Compound 5, Compound 6, or the controls, and phospho-EPOR was detected by ELISA (R&D Systems). The data represent mean+SEM of triplicate cultures.

Data set [6] deals with T1, EPO receptor. The data set can be described thus: EPO receptor phosphorylation in primary human fetal neural cells (phospho-EPOR ELISA). It counts as cell-based. Set-up: endogenous in cells; host or cells: primary human fetal neural cells from micro-dissected fetal brain tissue (Advanced Bioscience Resources, Inc.). To be noted: 10 min incubation; for level of EPO receptor activation compared with recombinant human EPO: EPO 10 IU/ml. As for the experimental part: as §1, with “cultures. […] The receptor activation results were consistent with functional cell based assays using primary human CD34+ bone marrow progenitor cells and erythroleukemia cell line TF-1.” for “cultures.”

The test system of data set [7] is frataxin. Put plainly: Frataxin protein levels in primary human fetal neurons (ELISA). It counts as cell-based. The settings on record: 28 days in culture, 24 h, relative to total protein. How it is done:
The effects of the compounds on frataxin protein levels in cells were analyzed. […] Embryonic mouse cell line P19 was differentiated into neuronal cells in the presence of retinoic acid and frataxin levels were measured (FIG. 4A). Frataxin levels were measured after 24 h by multi-species frataxin-ELISA (MitoSciences) and compared to total protein levels. The data represent mean+SEM. Primary human fetal neurons (28 days in culture) were also incubated for 24 h in the presence of the compounds, and human frataxin levels were measured by ELISA (MitoSciences) and compared to total protein levels (FIG. 4B). The data represent mean+SEM of triplicate measurements. Compounds were also tested for their effects on frataxin levels in cells derived from patients with FRDA. Cultures of patient peripheral blood mononuclear cells (PBMCs) were also used to test the EPO mimetic compounds for frataxin enhancement in frataxin-deficient cells. Compound 1 and Compounds 5-6 enhanced frataxin levels in these patient cells at concentration 1 uM or lower.

The next data set deals with TF-1 cells. The data set can be described thus: TF-1 cell proliferation. It counts as cell-based, human. To be noted: at concentrations that provided significant neuroprotective effects.
The subject of data set [8] is human CD34+ hematopoietic stem cells. Put plainly: Erythroid differentiation of human CD34+ cells (CD235a, flow cytometry). It counts as cell-based. To be noted: eleven days in culture. As for the experimental part: (§2) Compound 10 was tested at different concentrations for its ability to induce proliferation and differentiation of human CD34+ hematopoietic stem cells. Human CD34+ cells were purified by (FIG. 6A) immunomagnetic beads (>90% purity, purchased from Stem Cell Technologies) or (FIG. 6B) cell sorting (at Blood Systems Research Institute) and the cells were cultured in the presence of compounds for eight (FIG. 6A) or eleven (FIG. 6B) days. (FIG. 6A) The level of cell growth and survival was measured based on ATP levels (CellTiterGlo reagent), or (FIG. 6B) the expression level of CD235a was analyzed by flow cytometry as a marker for cell maturation. Cell survival was analyzed using the CellTiterGlo reagent to measure ATP levels as a marker of metabolically active cells that have not undergone apoptosis, and expression of CD235a as a marker of erythroid cell differentiation and as a specific marker for EPO-like erythropoietic activity.

The test system is the same in data set [9]. The data set can be described thus: Proliferation of human CD34+ cells (ATP, CellTiterGlo). The settings on record: eight days in culture. It counts as cell-based. How it is done:
as §2

The test system of a further data set is PC12 cells. The data set can be described thus: PC12 cell survival under serum deprivation (CellTiter-Glo). It counts as cell-based, rat. To be noted: 72 hours; for minimal effective concentration: Rattus norvegicus, PC-12, NS = RLU increased <25% at 5 uM, read-out: PC12 cell proliferation (CellTiter-Glo ®) Concentration at which RLU increased >25% compared to medium control. As for the experimental part:
Each culture condition was performed in quadruplicate in each experiment and the mean values were calculated. The results represent mean±SEM of relative light unit values when compared to the mean values obtained in the presence of the medium alone. A total of 13 experiments were performed and the statistical significance was analyzed using GraphPad Prism software using ANOVA, followed by paired t-test. The symbol * indicates P-values<0.01.
PC12 cells were cultured in DMEM supplemented with 10% fetal calf serum and 5% horse serum. […] Cell viability was analyzed by CellTiter-Glo® reagent (Promega).
PC12 cells were cultured in DMEM supplemented with 10% fetal calf serum and 5% horse serum. […] Cell survival of the serum-starved cells was analyzed by CellTiter-Glo® reagent luminescence reading.
FIG. 2 illustrates neuroprotective effects of Compounds 1-5 when tested in PC12 cell protection assays. PC12 cells were subjected to serum deprivation as described under FIG. 1.
PC12 cells were cultured in DMEM supplemented with 10% fetal calf serum and 5% horse serum. […] Cell survival of the serum-starved cells was analyzed by CellTiter-Glo® reagent luminescence reading (relative light units, “RLU”). […] “NS” indicates RLU increased <25% when compounds were tested at 5 uM.

The test system of the next data set is rats. Put plainly: Kidney and CNS protection in rats with DMA + Cremophor EL toxicity. It counts as in vivo, rat. The settings on record: DMA + CrEL 2.5 mL/kg each, IP. As for the experimental part: High-dose N,N-dimethylacetamide (DMA)+ Cremophor EL (CrEL) (2.5 mL/kg each, IP) was used to induce acute CNS and organ toxicity, and the potential of Compound 5 to protect the rats was studied.

With “rhEPO: recombinant human (rh)EPO, erythropoietin; positive control”, the “protection of dopaminergic neurons from 6-OHDA toxicity” value in data set [1] (10 IU/ml) is “significantly protected”. For the same compound, in the data set with frataxin [2], the “overall increase in frataxin in lymphocytes” value is given as 24%. For the same compound, the “concentration in human cerebrospinal fluid lower than in circulation” value in [3] is “more than 1000 fold”. Also, the “increase in frataxin levels in peripheral blood mononuclear cells” value with frataxin [4] is on record as 2-3 fold.

Turning to `Cc1cc(C)n2nc(OCCN(CCO)c3ccccc3)nc2n1` [Example 13, 2-{[2-({5,7-Dimethyl-[1,2,4]triazolo[1,5-a]pyrimidin-2-yl}oxy)ethyl](phenyl)amino}ethan-1-ol], the “EPO receptor activation (phospho-EPOR)” value at EPO receptor [5] was “did not activate EPO receptor”. Also, on EPO receptor [6], the EPO receptor phosphorylation result is given as “increased EPO receptor phosphorylation in a dose-dependent manner” and the “level of EPO receptor activation compared with recombinant human EPO” value is recorded as “comparable to that induced by recombinant human EPO”. Moreover, the frataxin protein levels result in the data set with frataxin [7] is “increased frataxin protein levels”. For the same compound, the “proliferation of TF-1 cells” value in the data set with TF-1 cells is “did not induce proliferation of TF-1 cells”.

In the case of `COc1ccc(NC(=O)CSc2nc3nc(C)cc(C)n3n2)cc1` [Example 10, 2-({5,7-dimethyl-[1,2,4]triazolo[1,5-a]pyrimidin-2-yl}sulfanyl)-N-(4-methoxyphenyl)acetamide], in data set [8], the “erythroid differentiation (CD235a expression)” value is “differentiation into erythroid cells expressing CD235a”. Moreover, in data set [9], the “CD34+ progenitor cell proliferation (ATP levels)” value is “dose-dependent induction of CD34+ progenitor cell proliferation”.

As to `CCc1cc(CC)n2nc(CCCOc3ccc(Cl)cc3)nc2n1` [Example 28, 2-[3-(4-chlorophenoxy)propyl]-5,7-diethyl-[1,2,4]triazolo[1,5-a]pyrimidine], the minimal effective concentration in the data set on PC12 cells (serum-free conditions) is below 5 µM.

As for `Cc1cc(C)n2nc(SCCOc3ccc(F)c(Cl)c3)nc2n1` [Example 6, 2-{[2-(3-chloro-4-fluorophenoxy)ethyl]sulfanyl}-5,7-dimethyl-[1,2,4]triazolo[1,5-a]pyrimidine], the minimal effective concentration with PC12 cells (serum-free conditions) was below 5 µM.

Regarding `Cc1cc(C)n2nc(OCCOc3ccc(Cl)cc3)nc2n1` [Example 11, 2-[2-(4-chlorophenoxy)ethoxy]-5,7-dimethyl-[1,2,4]triazolo[1,5-a]pyrimidine], in the data set with rats, the “kidney-protective effect (hypoproteinemia in serum)” value was “reduced hypoproteinemia in serum” and the “response to formalin injection” value was “normalized the response of the rats to formalin injection”. Besides, the “EPO receptor activation (phospho-EPOR)” value on EPO receptor [5] is “did not activate EPO receptor”. At EPO receptor [6], the EPO receptor phosphorylation entry is on record as “increased EPO receptor phosphorylation in a dose-dependent manner” and the “level of EPO receptor activation compared with recombinant human EPO” value is “comparable to that induced by recombinant human EPO”. Further, the frataxin protein levels entry in the data set with frataxin [7] was “increased frataxin protein levels”. The “proliferation of TF-1 cells” value with TF-1 cells is “did not induce proliferation of TF-1 cells”.

For the compound `Cc1cc(C)n2nc(SCCOc3ccc(Cl)cc3)nc2n1` [Example 1, 2-{[2-(4-chlorophenoxy)ethyl]sulfanyl}-5,7-dimethyl-[1,2,4]triazolo[1,5-a]pyrimidine], the “protection of dopaminergic neurons from 6-OHDA toxicity” value in data set [1] (1 uM) is “significantly protected”. The “effect on PC12 cell viability compared with rhEPO” value with PC12 cells (compound at 1 uM, serum-free) is “at least a comparable effect on cell viability as rhEPO”. Besides, the “level of PC12 cell protection compared with rhEPO at 10 U/ml” value in the data set on PC12 cells (compound at 5 uM, serum-free) is recorded as “even higher level of protection than rhEPO”. Moreover, in the data set with PC12 cells (serum-free conditions), the “concentration at which significant protective effect on PC12 cells was observed” value was 1 µM.
